Data from patent publication US20190367516A1 (Bayer Pharma Aktiengesellschaft, priority 2015, published 2019).
Like-named read-outs stand apart in the source and are kept apart here.

Legend:
anaesthetized rats = test: Effects on the heart rate in anaesthetized rats (B-9); type: in vivo, rat; conditions: i.v. infusion via jugular vein over 5 min, dose not given, in some cases means of several determinations
Procedure: B-9. Effects of the Test Substances on the Heart Rate in Anaesthetized Rats
Male rats of the strain (WI) WU Br from the breeder Charles River are anaesthetized initially with a 4-5% isoflurane inhalation for approx. 3 min. Subsequently, anaesthesia is maintained using a 1.5% isoflurane inhalation. For this purpose, the anaesthetized animals are fixed on a heated operating plate. By means of visual inspection and between toe reflex, the depth of anaesthesia is checked.
For the application of the test substance, an i.v. route into the jugular vein is used. A caudal to cranial skin incision is then made longitudinally and both the cervical musculature and the salivary glands are severed. The right common carotid artery is exposed and blood supply is arrested both proximally and distally. Using microinstrumentation, a TIP catheter (1.2 F) is introduced into the vessel in order to measure the arterial pressure and the heart rate.
Initially, both parameters are monitored for 10 min in the basal state without substance addition. The substances to be investigated are dissolved in suitable solvent mixtures and subsequently administered at various dosages to a group of animals in each case via the jugular vein by an infusion pump over 5 min. A solvent-treated group is used as control under the same experimental conditions. The arterial blood pressure and heart rate with substance addition is determined for 20 min. The data are registered with the PowerLab system (AD instruments) and evaluated using the LabChart program (AD instruments).
The values determined in this manner for the percentage decrease in heart rate for individual working examples are given in Table 4 below (in some cases as means of a plurality of independent individual determinations): […]

human M2 receptor [1] = biological target: T1, human M2 receptor (Homo sapiens, UniProt P08172)
T1 sequence (P08172 1-466): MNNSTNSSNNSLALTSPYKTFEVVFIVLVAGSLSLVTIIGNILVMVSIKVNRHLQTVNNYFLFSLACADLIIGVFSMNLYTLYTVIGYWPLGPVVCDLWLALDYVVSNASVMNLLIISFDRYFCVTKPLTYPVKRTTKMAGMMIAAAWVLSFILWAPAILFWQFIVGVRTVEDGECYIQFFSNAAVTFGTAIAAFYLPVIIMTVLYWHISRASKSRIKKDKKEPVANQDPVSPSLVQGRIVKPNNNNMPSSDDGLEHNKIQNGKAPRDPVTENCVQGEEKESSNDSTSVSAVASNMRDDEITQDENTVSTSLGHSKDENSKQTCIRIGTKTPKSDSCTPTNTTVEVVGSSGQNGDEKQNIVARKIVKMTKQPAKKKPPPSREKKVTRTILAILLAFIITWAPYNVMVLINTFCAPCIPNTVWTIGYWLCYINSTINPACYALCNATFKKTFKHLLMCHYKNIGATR

human M2 receptor [2] = biological target: T1, human M2 receptor; type: cell-based; conditions: α >1 = positive cooperativity
[3] = Receptor activity EC50, allosteric potency at EC20 acetylcholine, M2-GIRK1/4 reporter cells, in some cases mean of two or more determinations
[4] = read-out: Efficiency, boosting of the acetylcholine effect at EC20 acetylcholine concentration, M2-GIRK1/4 reporter cells
[5] = shift of acetylcholine dose-response curve (Allosteric EC50 shift)
[6] = Receptor activity EC50, M2-GIRK1/4 activation test, acetylcholine at EC20, allosteric potency, in some cases mean values from two or more determinations
[7] = shift in the acetylcholine dose-response curve (Allosteric EC50 shift, GraphPad PRISM)

| SMILES | Reduction in heart rate (%) (anaesthetized rats) | EC50 (human M2 receptor [1]; [3]) | Emax (human M2 receptor [1]; [4]) | Cooperativity (alpha factor) (human M2 receptor [2]; [5]) | Emax (human M2 receptor [1]; read-out: Efficiency) | EC50 (human M2 receptor [1]; [6]) | Cooperativity (alpha factor) (human M2 receptor [2]; [7]) |
| --- | --- | --- | --- | --- | --- | --- | --- |
| CCC(NC(=O)c1cn(-c2c(F)cc(F)cc2F)c2nc(N3C[C@@H](O)CC3=O)ccc2c1=O)C(F)(F)C(F)(F)F (single isomer, unassigned) [Example 520] | 15% | 2 nM | 100% | 36 |  |  |  |
| CCC(NC(=O)c1cn(-c2c(F)cc(F)cc2F)c2nc(N3C[C@@H](O)[C@H](O)C3)ccc2c1=O)C(F)(F)C(F)(F)F (single isomer, unassigned) [Example 523] | 15% |  |  | 41 | 100% |  |  |
| CC(NC(=O)c1cn(-c2c(F)cc(F)cc2F)c2nc(N3C[C@@H](O)CC3=O)ccc2c1=O)C(F)(F)C(F)(F)F (single isomer, unassigned) [Example 530] | 13% | 6 nM | 98.7% | 44 |  |  |  |
| CC(NC(=O)c1cn(-c2c(F)cc(F)cc2F)c2nc(N3C[C@@H](O)[C@H](O)C3)ccc2c1=O)C(F)(F)C(F)(F)F (single isomer, unassigned) [Example 550] | 13% |  |  | 34 | 100% |  |  |
| CC[C@@H](NC(=O)c1cn(-c2ccc(F)cc2F)c2nc(N3CC4C(C3)C4(F)F)ccc2c1=O)C(F)(F)F (stereo partly drawn) [Example 28, 7-(6,6-Difluoro-3-azabicyclo[3.1.0]hex-3-yl)-1-(2,4-difluorophenyl)-4-oxo-N-[(2R)-1,1,1-trifluorobutan-2-yl]-1,4-dihydro-1,8-naphthyridine-3-carboxamide] | 9% |  |  |  |  | 23 nM | 25 |
| CC[C@@H](NC(=O)c1cn(-c2ccc(F)cc2F)c2nc(N3CC[C@H](F)C3)ccc2c1=O)C(F)(F)F [Example 189, 1-(2,4-Difluorophenyl)-7-[(3S)-3-fluoropyrrolidin-1-yl]-4-oxo-N-[(2R)-1,1,1-trifluorobutan-2-yl]-1,4-dihydro-1,8-naphthyridine-3-carboxamide] | 7% |  |  |  |  | 23 nM | 24 |
| O=C(Nc1c(Cl)cccc1Cl)c1cn(-c2ccc(F)cc2F)c2nc(N3C[C@@H](O)CC3=O)ccc2c1=O [Example 201, N-(2,6-Dichlorophenyl)-1-(2,4-difluorophenyl)-7-[(4S)-4-hydroxy-2-oxopyrrolidin-1-yl]-4-oxo-1,4-dihydro-1,8-naphthyridine-3-carboxamide] | 6% |  |  |  |  | 39 nM | 39 |
| O=C(N[C@H](C1CC1)C(F)(F)F)c1cn(-c2ccc(F)cc2F)c2nc(N3C[C@@H](O)CC3=O)ccc2c1=O [Example 271, N-[(1R)-1-Cyclopropyl-2,2,2-trifluoroethyl]-1-(2,4-difluorophenyl)-7-[(4S)-4-hydroxy-2-oxopyrrolidin-1-yl]-4-oxo-1,4-dihydro-1,8-naphthyridine-3-carboxamide] | 8% |  |  |  |  | 40 nM | 43 |
| CC[C@@H](NC(=O)c1cn(-c2c(F)cccc2F)c2nc(N3C[C@@H](O)CC3=O)ccc2c1=O)C(F)(F)F [Example 275, 1-(2,6-Difluorophenyl)-7-[(4S)-4-hydroxy-2-oxopyrrolidin-1-yl]-4-oxo-N-[(2R)-1,1,1-trifluorobutan-2-yl]-1,4-dihydro-1,8-naphthyridine-3-carboxamide] | 9% |  |  |  | 92.8% | 18 nM | 38 |
| CC[C@@H](NC(=O)c1cn(-c2c(F)cc(F)cc2F)c2nc(N3C[C@@H](O)CC3=O)ccc2c1=O)C(F)(F)F [Example 325, 7-[(4S)-4-Hydroxy-2-oxopyrrolidin-1-yl]-4-oxo-N-[(2R)-1,1,1-trifluorobutan-2-yl]-1-(2,4,6-trifluorophenyl)-1,4-dihydro-1,8-naphthyridine-3-carboxamide] | 13% |  |  |  | 93% | 7 nM | 56 |
| C[C@H](NC(=O)c1cn(-c2c(F)cc(F)cc2F)c2nc(N3C[C@@H](O)CC3=O)ccc2c1=O)C(F)(F)F [Example 330, 7-[(4S)-4-Hydroxy-2-oxopyrrolidin-1-yl]-4-oxo-1-(2,4,6-trifluorophenyl)-N-[(2S)-1,1,1-trifluoropropan-2-yl]-1,4-dihydro-1,8-naphthyridine-3-carboxamide] | 9% |  |  |  |  | 41 nM | 29 |
| CC[C@H](NC(=O)c1cn(-c2c(F)cc(F)cc2F)c2nc(N3C[C@@H](O)CC3=O)ccc2c1=O)C(F)(F)F [Example 332, 7-[(4S)-4-Hydroxy-2-oxopyrrolidin-1-yl]-4-oxo-N-[(2S)-1,1,1-trifluorobutan-2-yl]-1-(2,4,6-trifluorophenyl)-1,4-dihydro-1,8-naphthyridine-3-carboxamide] | 11% |  |  |  | 99.2% | 20 nM | 37 |
| O=C(N[C@H](C1CC1)C(F)(F)F)c1cn(-c2c(F)cc(F)cc2F)c2nc(N3CCNC3=O)ccc2c1=O [Example 342, N-[(1R)-1-Cyclopropyl-2,2,2-trifluoroethyl]-4-oxo-7-(2-oxoimidazolidin-1-yl)-1-(2,4,6-trifluorophenyl)-1,4-dihydro-1,8-naphthyridine-3-carboxamide] | 10% |  |  |  |  | 11 nM | 13 |
| CC(C)(C)[C@@H](NC(=O)c1cn(-c2c(F)cc(F)cc2F)c2nc(N3C[C@@H](O)[C@H](O)C3)ccc2c1=O)C(F)(F)F [Example 349, 7-[(3R,4R)-3,4-Dihydroxypyrrolidin-1-yl]-4-oxo-N-[(2R)-1,1,1-trifluoro-3,3-dimethylbutan-2-yl]-1-(2,4,6-trifluorophenyl)-1,4-dihydro-1,8-naphthyridine-3-carboxamide] | 14% |  |  |  | 100% | 4 nM | 52 |
| CC(C)(CC(F)(F)F)NC(=O)c1cn(-c2c(F)cc(F)cc2F)c2nc(N3C[C@@H](O)[C@H](O)C3)ccc2c1=O [Example 370, 7-[(3R,4R)-3,4-Dihydroxypyrrolidin-1-yl]-4-oxo-N-(4,4,4-trifluoro-2-methylbutan-2-yl)-1-(2,4,6-trifluorophenyl)-1,4-dihydro-1,8-naphthyridine-3-carboxamide] | 12% |  |  |  |  | 14 nM | 32 |
| O=C(N[C@H](C1CC1)C(F)(F)F)c1cn(-c2c(F)cc(F)cc2F)c2nc(N3C[C@@H](O)CC3=O)ccc2c1=O [Example 386, N-[(1R)-1-Cyclopropyl-2,2,2-trifluoroethyl]-7-[(4S)-4-hydroxy-2-oxopyrrolidin-1-yl]-4-oxo-1-(2,4,6-trifluorophenyl)-1,4-dihydro-1,8-naphthyridine-3-carboxamide] | 13% |  |  |  |  | 9 nM | 39 |
